Read-outs that look alike come from different tables or passages of the source.
Key:
DGKalpha = DGKalpha (Homo sapiens, UniProt P23743); experiment: In vitro DGK inhibition assay (ADP-Glo, liposomes), DGKalpha; type: biochemical; design: hDGKalpha(1-735)-N-His; His (N); made in house; host or cells: Sf21 insect cells (baculovirus); conditions: 4 nM DGK α, 25 μM ATP, 125 uM DLG in liposomes, 1 hour reaction
In short: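 Full-length human DGKα (4 nM) or DGKζ (2 nM) from Sf21 cells, with DLG substrate at 125 uM in PS/PC liposomes and ATP at 25 μM (α) or 50 μM (ζ); 1 h reaction. ADP formed read by ADP-Glo luminescence; compounds 11-point, 1:3 dilutions from 10 mM, 2% DMSO final.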

DGKzeta = DGKzeta (Homo sapiens, UniProt Q13574); experiment: In vitro DGK inhibition assay (ADP-Glo, liposomes), DGKzeta; type: biochemical; design: hDGKzeta(1-928)-N-His; His (N); made in house; host or cells: Sf21 insect cells (baculovirus); conditions: 2 nM DGK ζ, 50 μM ATP, 125 uM DLG in liposomes, 1 hour reaction
DGKzeta, sequence (Q13574 whole entry): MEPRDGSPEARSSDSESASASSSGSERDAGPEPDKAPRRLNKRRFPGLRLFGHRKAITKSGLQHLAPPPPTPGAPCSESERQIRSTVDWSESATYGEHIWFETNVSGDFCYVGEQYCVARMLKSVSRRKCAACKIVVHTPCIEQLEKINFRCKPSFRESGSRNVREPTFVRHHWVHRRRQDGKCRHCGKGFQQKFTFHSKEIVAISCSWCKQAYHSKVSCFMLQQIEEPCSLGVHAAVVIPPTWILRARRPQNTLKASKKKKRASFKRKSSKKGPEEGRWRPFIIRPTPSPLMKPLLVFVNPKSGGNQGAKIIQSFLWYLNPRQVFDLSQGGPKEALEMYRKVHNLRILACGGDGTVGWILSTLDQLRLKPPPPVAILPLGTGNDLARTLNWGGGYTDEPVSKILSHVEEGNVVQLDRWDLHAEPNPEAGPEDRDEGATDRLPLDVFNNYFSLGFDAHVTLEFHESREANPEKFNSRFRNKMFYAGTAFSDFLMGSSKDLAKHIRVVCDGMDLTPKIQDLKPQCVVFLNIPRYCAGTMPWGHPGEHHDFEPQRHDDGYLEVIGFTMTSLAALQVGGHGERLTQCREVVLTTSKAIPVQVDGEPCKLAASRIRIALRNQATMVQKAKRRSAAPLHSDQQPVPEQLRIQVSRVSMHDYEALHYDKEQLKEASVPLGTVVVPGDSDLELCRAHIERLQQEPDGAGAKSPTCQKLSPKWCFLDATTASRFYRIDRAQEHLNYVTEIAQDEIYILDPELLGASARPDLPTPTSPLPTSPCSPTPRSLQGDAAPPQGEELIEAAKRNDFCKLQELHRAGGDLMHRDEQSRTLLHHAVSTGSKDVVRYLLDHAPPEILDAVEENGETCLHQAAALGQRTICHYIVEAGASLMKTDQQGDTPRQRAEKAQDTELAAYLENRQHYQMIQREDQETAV
In short: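 DGKζ (2 nM) phosphorylated DLG presented in DLG/PS/PC liposomes (final DLG 125 μM) with 50 μM ATP for 1 hour. ADP formed was read by ADP-Glo luminescence. Compounds were tested as 11-point 1:3 dose responses in 2% final DMSO.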

primary human T-cells = experiment: T-cell proliferation assay (CellTiter-Glo); type: cell-based; conditions: CD3 condition; for Emax: read-out: Emax proliferation (% activation); for EC50: proliferation after 5 days, CellTiter-Glo, read-out: Tcell Proliferation CD3 EC50
In short: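 Expanded primary human T-cells (100k/well) on plates coated with CD3 antibody or PBS only, given a 5- or 6-point dose response (top 20 or 10 μM final, 3.333-fold steps, 0.2% DMSO). ATP measured by CellTiter-Glo 2.0 luminescence after 5 days. Normalized to DMSO and 20 μM reference A1 (100%); EC50 and Emax reported for CD3 conditions.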

[1] = Homo sapiens, T-cell, 120 h, 5 days, 20 μM reference compound A1 = 100%

DGKalpha, sequence (P23743 whole entry): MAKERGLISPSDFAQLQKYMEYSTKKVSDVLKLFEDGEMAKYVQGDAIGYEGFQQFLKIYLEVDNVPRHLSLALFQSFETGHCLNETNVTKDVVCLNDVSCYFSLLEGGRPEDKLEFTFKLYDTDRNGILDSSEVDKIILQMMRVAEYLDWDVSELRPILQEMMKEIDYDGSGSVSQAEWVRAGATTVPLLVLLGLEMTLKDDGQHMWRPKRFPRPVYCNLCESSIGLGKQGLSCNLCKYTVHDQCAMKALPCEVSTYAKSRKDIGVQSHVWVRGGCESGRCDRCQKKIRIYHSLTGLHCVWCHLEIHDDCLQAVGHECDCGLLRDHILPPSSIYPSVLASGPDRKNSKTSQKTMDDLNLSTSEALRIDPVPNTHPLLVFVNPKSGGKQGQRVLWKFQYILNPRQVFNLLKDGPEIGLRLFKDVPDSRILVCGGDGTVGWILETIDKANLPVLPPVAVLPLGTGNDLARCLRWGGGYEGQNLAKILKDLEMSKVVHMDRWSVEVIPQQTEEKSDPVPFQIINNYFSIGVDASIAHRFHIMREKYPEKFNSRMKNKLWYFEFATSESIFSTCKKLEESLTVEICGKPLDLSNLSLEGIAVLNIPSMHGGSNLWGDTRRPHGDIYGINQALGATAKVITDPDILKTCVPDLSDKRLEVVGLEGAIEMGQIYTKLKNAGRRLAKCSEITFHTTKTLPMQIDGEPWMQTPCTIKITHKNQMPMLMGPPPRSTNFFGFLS

Structure (SMILES) | IC50 (DGKalpha) [nM] | IC50 (DGKzeta) [nM] | Emax (primary human T-cells; [1]) [%] | EC50 (primary human T-cells; Homo sapiens, T-cell, 120 h) [nM] | Emax proliferation (% activation) (primary human T-cells; 5 days, 20 μM reference compound A1 = 100%) [%] | EC50 (primary human T-cells) [nM]
CCC(CC)Oc1ccc(CN2C(=O)[C@@H](N)CS(=O)(=O)c3ccc(-c4nnc(C(C)(C)S(C)(=O)=O)o4)cc32)cc1 [Example 19, (3R)-3-amino-5-[[4-(1-ethylpropoxy)phenyl]methyl]-7-[5-(1-methyl-1-methylsulfonyl-ethyl)-1,3,4-oxadiazol-2-yl]-1,1-dioxo-2,3-dihydro-1λ6,5-benzothiazepin-4-one] | 1810 | 1520 | 78 | 2760 | – | –
CC(C)(c1nnc(-c2ccc3c(c2)N(Cc2ccc(Oc4cccc(C(F)(F)F)c4)cc2)C(=O)[C@@H](N)CS3(=O)=O)o1)S(C)(=O)=O [Example 38] | 3230 | 1280 | 130 | 623 | – | –
CC(C)(c1nnc(-c2ccc3c(c2)N(Cc2ccc(-c4ccc(C#N)cc4)cc2)C(=O)[C@@H](N)CS3(=O)=O)o1)S(C)(=O)=O [Example 20, 4-[4-[[(3R)-3-amino-7-[5-(1-methyl-1-methylsulfonyl-ethyl)-1,3,4-oxadiazol-2-yl]-1,1,4-trioxo-2,3-dihydro-1λ6,5-benzothiazepin-5-yl]methyl]phenyl]benzonitrile] | 1380 | 1450 | 85 | 4010 | – | –
CC(C)(c1nnc(-c2cc3c(cc2F)S(=O)(=O)C[C@H](N)C(=O)N3Cc2ccc(-c3ccc(C(F)(F)F)cc3)cc2)o1)S(C)(=O)=O [Example 35, (3R)-3-amino-8-fluoro-7-[5-(1-methyl-1-methylsulfonyl-ethyl)-1,3,4-oxadiazol-2-yl]-1,1-dioxo-5-[[4-[4-(trifluoromethyl)phenyl]phenyl]methyl]-2,3-dihydro-1λ6,5-benzothiazepin-4-one] | 1220 | 649 | 164 | < 15 | – | –
COc1cccc(Oc2ccc(CN3C(=O)[C@@H](N)CS(=O)(=O)c4ccc(-c5nnc(C(C)(C)S(C)(=O)=O)o5)cc43)cc2)c1 [Example 42] | 1160 | 413 | 205 | 674 | – | –
CC(C)(c1nnc(-c2ccc3c(c2)N(Cc2ccc(Oc4cccc(Br)c4)cc2)C(=O)[C@@H](N)CS3(=O)=O)o1)S(C)(=O)=O [Example 60, (3R)-3-amino-5-[[4-(3-bromophenoxy)phenyl]methyl]-7-[5-(1-methyl-1-methylsulfonyl-ethyl)-1,3,4-oxadiazol-2-yl]-1,1-dioxo-2,3-dihydro-1λ6,5-benzothiazepin-4-one] | 3800 | 609 | 119 | 660 | – | –
CC(C)(c1nc(-c2cc3c(cc2F)S(=O)(=O)C[C@H](N)C(=O)N3Cc2ccc(Cl)cc2)no1)S(C)(=O)=O [Example 43, (3R)-3-amino-5-[(4-chlorophenyl)methyl]-8-fluoro-7-[5-(1-methyl-1-methylsulfonyl-ethyl)-1,2,4-oxadiazol-3-yl]-1,1-dioxo-2,3-dihydro-1λ6,5-benzothiazepin-4-one] | 640 | 192 | 153 | 75 | – | –
CC(C)(c1nc(-c2cc3c(cc2F)S(=O)(=O)C[C@H](N)C(=O)N3Cc2ccc(Oc3ccccc3)cc2)no1)S(C)(=O)=O [Example 30, (3R)-3-amino-8-fluoro-7-[5-(1-methyl-1-methylsulfonyl-ethyl)-1,2,4-oxadiazol-3-yl]-1,1-dioxo-5-[(4-phenoxyphenyl)methyl]-2,3-dihydro-1λ6,5-benzothiazepin-4-one] | 815 | 309 | 225 | 127 | – | –
CC(C)(c1nnc(-c2ccc3c(c2)N(Cc2ccc(Oc4cccc(Cl)c4)cc2)C(=O)[C@@H](N)CS3(=O)=O)o1)S(C)(=O)=O [Example 34, (3R)-3-amino-5-[[4-(3-chlorophenoxy)phenyl]methyl]-7-[5-(1-methyl-1-methylsulfonyl-ethyl)-1,3,4-oxadiazol-2-yl]-1,1-dioxo-2,3-dihydro-1λ6,5-benzothiazepin-4-one] | 20300 | 1100 | 127 | 1270 | – | –
Cc1cccc(Oc2ccc(CN3C(=O)[C@@H](N)CS(=O)(=O)c4ccc(-c5nnc(C(C)(C)S(C)(=O)=O)o5)cc43)cc2)c1 [Example 31] | 1780 | 455 | 106 | 599 | – | –
CC(C)(c1nnc(-c2ccc3c(c2)N(Cc2ccc(OCC(F)(F)F)cc2)C(=O)[C@@H](N)CS3(=O)=O)o1)S(C)(=O)=O [Example 6, (3R)-3-amino-7-[5-(1-methyl-1-methylsulfonyl-ethyl)-1,3,4-oxadiazol-2-yl]-1,1-dioxo-5-[[4-(2,2,2-trifluoroethoxy)phenyl]methyl]-2,3-dihydro-1λ6,5-benzothiazepin-4-one] | 1780 | 2050 | 62 | 5560 | – | –
CC(C)(c1nc(-c2cc3c(cc2F)S(=O)(=O)C[C@H](N)C(=O)N3Cc2ccc(OCc3nc(C(F)(F)F)no3)cc2)no1)S(C)(=O)=O [Example 59, (3R)-3-amino-8-fluoro-7-[5-(1-methyl-1-methylsulfonyl-ethyl)-1,2,4-oxadiazol-3-yl]-1,1-dioxo-5-[[4-[[3-(trifluoromethyl)-1,2,4-oxadiazol-5-yl]methoxy]phenyl]methyl]-2,3-dihydro-1λ6,5-benzothiazepin-4-one] | 1850 | 310 | 185 | 1120 | – | –
CC(C)(c1nnc(-c2cc3c(cc2F)S(=O)(=O)C[C@H](N)C(=O)N3Cc2ccc(OC(F)(F)C(F)F)cc2)o1)S(C)(=O)=O [Example 26, (3R)-3-amino-8-fluoro-7-[5-(1-methyl-1-methylsulfonyl-ethyl)-1,3,4-oxadiazol-2-yl]-1,1-dioxo-5-[[4-(1,1,2,2-tetrafluoroethoxy)phenyl]methyl]-2,3-dihydro-1λ6,5-benzothiazepin-4-one] | 447 | 370 | 122 | 573 | – | –
CC(C)(c1nnc(-c2ccc3c(c2)N(Cc2ccc(SC(F)(F)F)cc2)C(=O)[C@@H](N)CS3(=O)=O)o1)S(C)(=O)=O [Example 7] | 2300 | 1710 | 76 | 3590 | – | –
CC(C)(c1nnc(-c2ccc3c(c2)N(Cc2ccc(-c4ccc(C(F)(F)F)cc4)cc2)C(=O)[C@@H](N)CS3(=O)=O)o1)S(=O)(=O)N1CCCC1 [Example 67, (3R)-3-amino-7-[5-(1-methyl-1-pyrrolidin-1-ylsulfonyl-ethyl)-1,3,4-oxadiazol-2-yl]-1,1-dioxo-5-[[4-[4-(trifluoromethyl)phenyl]phenyl]methyl]-2,3-dihydro-1λ6,5-benzothiazepin-4-one] | > 62500 | 49700 | 142 | 5510 | – | –
CC(C)(c1nc(-c2cc3c(cc2F)[S+]([O-])C[C@H](N)C(=O)N3Cc2ccc(Oc3ccccc3)cc2)no1)S(C)(=O)=O (stereo partly drawn) [Example 51, (3R)-3-amino-8-fluoro-7-[5-(1-methyl-1-methylsulfonyl-ethyl)-1,2,4-oxadiazol-3-yl]-1-oxo-5-[(4-phenoxyphenyl)methyl]-2,3-dihydro-1λ4,5-benzothiazepin-4-one] | 2290 | 371 | – | – | 67 | > 10000
CC(C)(c1nnc(-c2ccc3c(c2)N(Cc2ccc(Oc4ccccc4)cc2)C(=O)[C@@H](N)CS3(=O)=O)o1)S(C)(=O)=O [Example 5, (3R)-3-amino-7-[5-(1-methyl-1-methylsulfonyl-ethyl)-1,3,4-oxadiazol-2-yl]-1,1-dioxo-5-[(4-phenoxyphenyl)methyl]-2,3-dihydro-1λ6,5-benzothiazepin-4-one] | 3120 | 701 | 120 | 942 | – | –
CC(C)(c1nnc(-c2cc3c(cc2F)S(=O)(=O)C[C@H](N)C(=O)N3Cc2ccc(-c3ccc(C(F)(F)F)nc3)cc2)o1)S(C)(=O)=O [Example 36] | 1590 | 414 | 112 | 1680 | – | –
CC(C)(c1nnc(-c2ccc3c(c2)N(Cc2ccc(OC(F)(F)F)cc2)C(=O)[C@@H](N)CS3(=O)=O)o1)S(C)(=O)=O [Example 64, (3R)-3-amino-7-[5-(1-methyl-1-methylsulfonyl-ethyl)-1,3,4-oxadiazol-2-yl]-1,1-dioxo-5-[[4-(trifluoromethoxy)phenyl]methyl]-2,3-dihydro-126,5-benzothiazepin-4-one] | 3260 | 1920 | 98 | 6170 | – | –
